{"source": "patent US6441036B1", "about": "(priority 1998, dated 2002)", "key": {"[1]": {"test_system": "mitochondrial β-oxidation", "assay": "Effect of fatty acid analogues on mitochondrial β-oxidation in rat liver (Example 18)", "type": "in vivo", "settings": "[1-14C]-palmitoyl-L-carnitine as substrate", "quoted_text": "Freshly isolated livers from individual old Zucker rats, were homogenised in ice-cold sucrose buffer (0.25 M sucrose, 10 mM HEPES (pH 7.4) and 2 mM EDTA). Post-nuclear and mitochondrial fractions were prepared using preparative differential centrifugation according to DeDuve et al. (De Duve, C., et al., Biochem. J., 60, 604-617 1955.) Modifications, purity and yield were as described earlier (Garras, A., et al., Biochim. Biophys. Acta, 1255, 154-160 1995.). Acid soluble products were measured in post-nuclear and mitochondrial enriched fractions, using [1-^14C]-palmitoyl-CoA and [1-^14C]-palmitoyl-L-carnitine (Radio-chemical Centre, Amersham, England) as substrates as described earlier (Willumsen, N., et al., J. Lipid Res., 34, 13-22 1993. Carnitine palmitoyltransferase-I and -II activities were measured in the post-nuclear and mitochondrial fractions essentially as described by Bremer (Bremer, J., Biochim. Biophys. Acta, 665, 628-631 1981.) and 3-hydroxy-3-methylglutharyl-CoA synthase was measured according to Clinkenbeard et al. (Clinkenbeard, K. D., et al., J. Biol. Chem, 250, 3108-3116 1975.) in the mitochondrial fractions.\nObese Zucker (fa/fa) rats were given a standard chow either with (n=6) or without (n=5) 0.15% TTA. Following 21 days of treatment, rats were killed by cervical dislocation and the livers were removed. […] Values are expressed as the mean±S.D."}, "[2]": {"assay": "Lipid lowering effect in normal Wistar rats (Example 4)", "type": "in vivo", "settings": "gavage once daily for 7 days; dose mg/day/kg body weight: TSA 15, EPA 1500, TTA 150", "quoted_text": "Phospholipids were measured by the enzymatic method of bioMérieux, Marcy-l{grave over ( )}Etoile, France, Triacylglycerol by the Technicon Method no. SA4-0324L90, USA and Cholesterol by the Technicon Method no. SA4-0305L90, USA.\nMale Wistar rats, weighing 180-200 g at the start of the experiment, were housed individually in metal wire cages in a room maintained at 12 h light-dark cycles and a constant temperature of 20±3° C. The animals were acclimatised for one week under these conditions before the start of the experiments.\nTTA, TSA and eicosapentaenoic acid (EPA) were suspended in 0.5% (w/v) carboxymethyl cellulose (CMC). Six animals were used for each treatment, and a 0.5% CMC solution was administrated to the rats as control. After administration of the test compound, the rats were fasted for 12 hours and anaesthetised with haloethan. The EPA and the fatty acid derivatives were administered by gastric intubation (gavage) once daily for 7 days. Blood samples were collected by cardiac puncture, and lipid concentrations in plasma were determined as outlined in the method section."}, "[3]": {"assay": "Hepatic levels of triacylglycerol (Example 17)", "type": "in vivo, Wistar rats", "settings": "fed 6 days, no prefeeding; TTA 150 mg/kg/day, TTP 300 mg/kg/day", "experimental": "Male Wistar rats had free access to water and rat maintenance chow. They were fed palmitic acid or fatty acid analogues suspended in 0.5% CMC for 6 days. In some experiments TTA or TTP were fed for 3 days before feeding both for 6 days. At the end of the experiment the rats were fasted overnight, killed, the liver removed and homogenized. Triacylglycerol was measured in the homogenate."}, "[4]": {"test_system": "Salmonella typhimurium", "assay": "Test for mutagenic activity in Salmonella typhimurium strains", "type": "cell-based", "settings": "3-1000 mg/plate (TTA), 2-5000 mg/plate (TSA)", "description": "(§1) Tests for mutagenic activity have been performed by Covance Laboratories Limited, England. […] Furthermore, TTA was not mutagenic when tested in mouse lymphoma cells […] L5178Y."}, "[5]": {"test_system": "Escherichia coli", "assay": "Test for mutagenic activity in Escherichia coli strains", "type": "cell-based", "settings": "3-1000 mg/plate (TTA), 2-5000 mg/plate (TSA)", "description": "as §1"}, "[6]": {"test_system": "mouse lymphoma cells, L5178Y", "assay": "Mutagenicity test in mouse lymphoma cells L5178Y", "type": "cell-based", "settings": "concentration 2.5-50 mg/ml", "description": "as §1"}, "[7]": {"test_system": "cultured Chinese hamster ovary cells", "assay": "Chromosomal aberrations in cultured Chinese hamster ovary cells", "settings": "doses tested 12-140 mg/ml"}}, "data": [{"smiles": "CCCCCCCCCCCCCCCC(=O)O", "note": "[Palm, palmitic acid]", "values": [{"measurement": "Mitochondrial β-oxidation activity", "setting": "[1]", "value": "0.47 ± 0.06", "unit": "nmol/min/mg protein"}]}, {"smiles": "CC/C=C\\C/C=C\\C/C=C\\C/C=C\\C/C=C\\CCCC(=O)O", "note": "[EPA, eicosapentaenoic acid, reference compound]", "values": [{"measurement": "Plasma lipids: cholesterol", "setting": "[2]", "value": "18 % reduction of control"}, {"measurement": "Plasma lipids: triglycerides", "setting": "[2]", "value": "20 % reduction of control"}]}, {"smiles": "CCCCCCCCCCCCCCSCCC(=O)O", "note": "[reference compound]", "values": [{"measurement": "Hepatic TG (triacylglycerol)", "setting": "[3]", "value": "95.4 ± 14.7", "unit": "µmol/g"}]}, {"smiles": "CCCCCCCCCCCCCC[Se]CC(=O)O", "note": "[TSA, Tetradecylselenioacetic acid]", "values": [{"measurement": "Induction of mutations", "setting": "[4]", "value": "did not induce mutations"}, {"measurement": "Induction of mutations", "setting": "[5]", "value": "did not induce mutations"}, {"measurement": "Mutagenicity", "setting": "[6]", "value": "not to be mutagenic"}, {"measurement": "Plasma lipids: cholesterol", "setting": "[2]", "value": "20 % reduction of control"}, {"measurement": "Plasma lipids: triglycerides", "setting": "[2]", "value": "25 % reduction of control"}, {"measurement": "Chromosomal aberrations", "setting": "[7]", "value": "no aberrations were induced"}]}]}
